Experimental data as given in PubChem BioAssay AID256 (DTP/NCI, 2004).
Values joined by “and” are separate entries in the source; they are usually repeats but may differ in a detail not shown here. Equal values may be shown once. Inconclusive results and toxic doses are left out. The calls were made as follows: active = survival T/C of 150% or more; inactive = T/C below 125% in these data.

Test system: CD2F1 mice, L1210 leukemia ip, survival T/C
Assay: NCI In Vivo Anticancer Drug Screen. Data for tumor model L1210 Leukemia (intraperitoneal) in CD2F1 (CDF1) mice
Details: higher = longer survival
Method in brief: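 Ratio T/C, where T is the treated-group value and C the vehicle-dosed control value, from mice implanted with a transplantable tumor.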

[1] = endpoint: mean survival time, dose: 100.0 mg/kg/injection, schedule: Q01DX001 (ip), vehicle: saline with Tween-80
[2] = endpoint: mean survival time, dose: 200.0 mg/kg/injection, schedule: Q01DX001 (ip), vehicle: saline with Tween-80
[3] = endpoint: mean survival time, dose: 50.0 mg/kg/injection, schedule: Q01DX009 (ip), vehicle: saline
[4] = endpoint: mean survival time, dose: 100.0 mg/kg/injection, schedule: Q01DX009 (ip), vehicle: saline
[5] = endpoint: mean survival time, dose: 100.0 mg/kg/injection, schedule: Q04DX003 (ip), vehicle: Klucel (hydroxypropylcellulose) (HPC)
[6] = endpoint: mean survival time, dose: 200.0 mg/kg/injection, schedule: Q04DX003 (ip), vehicle: Klucel (hydroxypropylcellulose) (HPC)
[7] = endpoint: mean survival time, dose: 50.0 mg/kg/injection, schedule: Q01DX001 (ip), vehicle: saline with Tween-80
[8] = endpoint: mean survival time, dose: 100.0 mg/kg/injection, schedule: Q04DX002 (ip), vehicle: saline with Tween-80
[9] = endpoint: mean survival time, dose: 200.0 mg/kg/injection, schedule: Q04DX002 (ip), vehicle: saline with Tween-80
[10] = endpoint: mean survival time, dose: 400.0 mg/kg/injection, schedule: Q04DX002 (ip), vehicle: saline with Tween-80
[11] = endpoint: mean survival time, dose: 100.0 mg/kg/injection, schedule: Q04DX003 (ip), vehicle: saline with Tween-80
[12] = endpoint: mean survival time, dose: 200.0 mg/kg/injection, schedule: Q04DX003 (ip), vehicle: saline with Tween-80
[13] = endpoint: mean survival time, dose: 400.0 mg/kg/injection, schedule: Q04DX003 (ip), vehicle: saline with Tween-80
[14] = endpoint: mean survival time, dose: 100.0 mg/kg/injection, schedule: Q01DX009 (ip), vehicle: saline with Tween-80
[15] = endpoint: mean survival time, dose: 200.0 mg/kg/injection, schedule: Q01DX009 (ip), vehicle: saline with Tween-80

Measured: T/C

CCCCCC[C@H]([C@H](C)O)n1cnc2c(N)ncnc21
inactive: endpoint: mean survival time, dose: 0.38 mg/kg/injection, schedule: Q03HX024 (ip), vehicle: saline with Tween-80 92 % of control | endpoint: mean survival time, dose: 0.57 mg/kg/injection, schedule: Q03HX024 (ip), vehicle: saline with Tween-80 96 % of control | endpoint: mean survival time, dose: 1.3 mg/kg/injection, schedule: Q03HX024 (ip), vehicle: saline with Tween-80 102 % of control | endpoint: mean survival time, dose: 2.0 mg/kg/injection, schedule: Q03HX024 (ip), vehicle: saline with Tween-80 98 % of control | endpoint: mean survival time, dose: 3.0 mg/kg/injection, schedule: Q03HX024 (ip), vehicle: saline with Tween-80 96 % of control | endpoint: mean survival time, dose: 4.5 mg/kg/injection, schedule: Q03HX024 (ip), vehicle: saline with Tween-80 98 % of control | endpoint: mean survival time, dose: 5.0 mg/kg/injection, schedule: Q03HX024 (ip), vehicle: saline with Tween-80 104 % of control | endpoint: mean survival time, dose: 6.25 mg/kg/injection, schedule: Q01DX009 (ip), vehicle: Klucel (hydroxypropylcellulose) (HPC) 95 % of control and 100 % of control | endpoint: mean survival time, dose: 10.0 mg/kg/injection, schedule: Q03HX024 (ip), vehicle: saline with Tween-80 107 % of control | endpoint: mean survival time, dose: 12.5 mg/kg/injection, schedule: Q01DX009 (ip), vehicle: Klucel (hydroxypropylcellulose) (HPC) 98 % of control and 100 % of control | endpoint: mean survival time, dose: 25.0 mg/kg/injection, schedule: Q01DX009 (ip), vehicle: Klucel (hydroxypropylcellulose) (HPC) 100 % of control and 101 % of control | endpoint: mean survival time, dose: 25.0 mg/kg/injection, schedule: Q03HX024 (ip), vehicle: saline with Tween-80 105 % of control | endpoint: mean survival time, dose: 50.0 mg/kg/injection, schedule: Q01DX009 (ip), vehicle: Klucel (hydroxypropylcellulose) (HPC) 97 % of control and 100 % of control | endpoint: mean survival time, dose: 50.0 mg/kg/injection, schedule: Q03HX024 (ip), vehicle: saline with Tween-80 105 % of control | endpoint: mean survival time, dose: 100.0 mg/kg/injection, schedule: Q01DX009 (ip), vehicle: Klucel (hydroxypropylcellulose) (HPC) 95 % of control and 100 % of control | endpoint: mean survival time, dose: 100.0 mg/kg/injection, schedule: Q03HX024 (ip), vehicle: saline with Tween-80 96 % of control | endpoint: mean survival time, dose: 200.0 mg/kg/injection, schedule: Q01DX009 (ip), vehicle: Klucel (hydroxypropylcellulose) (HPC) 100 % of control | endpoint: median survival time, dose: 25.0 mg/kg/injection, schedule: Q01DX009 (ip), vehicle: Klucel (hydroxypropylcellulose) (HPC) 96 % of control | endpoint: median survival time, dose: 50.0 mg/kg/injection, schedule: Q01DX009 (ip), vehicle: Klucel (hydroxypropylcellulose) (HPC) 101 % of control | endpoint: median survival time, dose: 100.0 mg/kg/injection, schedule: Q01DX009 (ip), vehicle: Klucel (hydroxypropylcellulose) (HPC) 97 % of control

Cc1ccc(S(=O)(=O)OC(c2ccc(C(OS(=O)(=O)c3ccc(C)cc3)(C(F)(F)F)C(F)(F)F)cc2)(C(F)(F)F)C(F)(F)F)cc1
inactive: [1] 96 % of control | [2] 95 % of control | endpoint: mean survival time, dose: 400.0 mg/kg/injection, schedule: Q01DX001 (ip), vehicle: saline with Tween-80 90 % of control

CN(N=O)C(=O)NCC1OC(OC2(CO)OC(CNC(=O)N(C)N=O)C(O)C2O)C(O)C(O)C1O (stereo unspecified)
inactive: [3] 119 % of control | [4] 122 % of control | endpoint: mean survival time, dose: 133.0 mg/kg/injection, schedule: Q01DX009 (ip), vehicle: saline 107 % of control

Cc1ccc(-c2nc(SCc3ccc(Cl)cc3)[nH]c(=O)c2CCO)cc1
inactive: [5] 96 % of control | [6] 87 % of control

CC(C)CCOC(=S)S.[Pt]
inactive: endpoint: mean survival time, dose: 9.37 mg/kg/injection, schedule: Q04DX003 (ip), vehicle: saline with Tween-80 112 % of control | endpoint: mean survival time, dose: 18.75 mg/kg/injection, schedule: Q04DX003 (ip), vehicle: saline with Tween-80 96 % of control | endpoint: mean survival time, dose: 37.5 mg/kg/injection, schedule: Q04DX003 (ip), vehicle: saline with Tween-80 96 % of control | endpoint: mean survival time, dose: 75.0 mg/kg/injection, schedule: Q04DX003 (ip), vehicle: saline with Tween-80 104 % of control | endpoint: mean survival time, dose: 150.0 mg/kg/injection, schedule: Q04DX003 (ip), vehicle: saline with Tween-80 96 % of control

NC(Cc1c[nH]c2ccccc12)C(=O)O (stereo unspecified)
inactive: [7] 98 % of control | [1] 98 % of control | [2] 101 % of control

CCOP(=O)(Cc1cccc2ccccc12)OCC
inactive: endpoint: mean survival time, dose: 100.0 mg/kg/injection, schedule: Q01DX001 (ip), vehicle: Klucel (hydroxypropylcellulose) (HPC) 103 % of control | endpoint: mean survival time, dose: 200.0 mg/kg/injection, schedule: Q01DX001 (ip), vehicle: Klucel (hydroxypropylcellulose) (HPC) 96 % of control | endpoint: mean survival time, dose: 400.0 mg/kg/injection, schedule: Q01DX001 (ip), vehicle: Klucel (hydroxypropylcellulose) (HPC) 100 % of control

O=c1[nH]c2ccccc2c2c3ccccc3nn12
inactive: endpoint: mean survival time, dose: 25.0 mg/kg/injection, schedule: Q04DX002 (ip), vehicle: saline with Tween-80 113 % of control | endpoint: mean survival time, dose: 50.0 mg/kg/injection, schedule: Q04DX002 (ip), vehicle: saline with Tween-80 103 % of control | [8] 96 % of control and 100 % of control | [9] 100 % of control and 106 % of control | [10] 103 % of control

C/C(Cc1ccccc1)=N\O
inactive: [11] 103 % of control | [12] 100 % of control | [13] 114 % of control

CC1(C)CC(O)C2(C)CCC3(C)C(=CCC4C5(C)CCC(O)C(C)(CO)C5CCC43C)C2C1 (stereo unspecified) (tested in a mixture with another compound)
inactive: [8] 102 % of control | [9] 98 % of control | [10] 107 % of control

CC1CCS(=O)(=O)CC1.[Cl][Hg][Cl]
inactive: endpoint: mean survival time, dose: 0.62 mg/kg/injection, schedule: Q04DX003 (ip), vehicle: saline 104 % of control | endpoint: mean survival time, dose: 1.25 mg/kg/injection, schedule: Q04DX003 (ip), vehicle: saline 106 % of control

O=S(=O)(CC(I)c1ccccc1)c1ccccc1 (stereo unspecified)
inactive: endpoint: mean survival time, dose: 75.0 mg/kg/injection, schedule: Q01DX009 (ip), vehicle: saline 99 % of control | endpoint: mean survival time, dose: 150.0 mg/kg/injection, schedule: Q01DX009 (ip), vehicle: saline 91 % of control | endpoint: mean survival time, dose: 300.0 mg/kg/injection, schedule: Q01DX009 (ip), vehicle: saline 92 % of control

c1cc2c3c(cccc3c1)N=S=N2
inactive: [11] 89 % of control | [12] 89 % of control | [13] 86 % of control

Cn1c(=O)c(CC(O)C(Cl)(Cl)Cl)nc2ccccc21 (stereo unspecified)
inactive: [5] 95 % of control | [6] 95 % of control | endpoint: mean survival time, dose: 400.0 mg/kg/injection, schedule: Q04DX003 (ip), vehicle: Klucel (hydroxypropylcellulose) (HPC) 98 % of control

CN(C)CC1CCCCN1 (stereo unspecified)
inactive: [3] 94 % of control | [4] 94 % of control | endpoint: mean survival time, dose: 200.0 mg/kg/injection, schedule: Q01DX009 (ip), vehicle: saline 94 % of control

O=[N+]([O-])c1cnc(C2=C(O)c3ccccc3CC2)s1
inactive: endpoint: mean survival time, dose: 25.0 mg/kg/injection, schedule: Q01DX001 (ip), vehicle: saline with Tween-80 96 % of control | [7] 96 % of control | [1] 100 % of control

Nc1ncnc2c1[nH]c(=O)n2C1OC(CO)C2OC21 (stereo unspecified)
inactive: endpoint: mean survival time, dose: 12.5 mg/kg/injection, schedule: Q01DX005 (ip), vehicle: distilled water + Tween-80 102 % of control | endpoint: mean survival time, dose: 25.0 mg/kg/injection, schedule: Q01DX005 (ip), vehicle: distilled water + Tween-80 95 % of control | endpoint: mean survival time, dose: 50.0 mg/kg/injection, schedule: Q01DX005 (ip), vehicle: distilled water + Tween-80 101 % of control | endpoint: mean survival time, dose: 100.0 mg/kg/injection, schedule: Q01DX005 (ip), vehicle: distilled water + Tween-80 92 % of control | endpoint: mean survival time, dose: 200.0 mg/kg/injection, schedule: Q01DX005 (ip), vehicle: distilled water + Tween-80 95 % of control

NC(=O)NC(CC(=O)O)C(=O)O (stereo unspecified)
inactive: [14] 96 % of control | [15] 98 % of control | endpoint: mean survival time, dose: 400.0 mg/kg/injection, schedule: Q01DX009 (ip), vehicle: saline with Tween-80 95 % of control

CC1(C)c2c3ccccc3cc3cccc(c23)[S+]1c1ccccc1 (stereo unspecified)
inactive: endpoint: mean survival time, dose: 5.0 mg/kg/injection, schedule: Q01DX001 (ip), vehicle: saline with Tween-80 105 % of control | endpoint: mean survival time, dose: 10.0 mg/kg/injection, schedule: Q01DX001 (ip), vehicle: saline with Tween-80 106 % of control | endpoint: mean survival time, dose: 20.0 mg/kg/injection, schedule: Q01DX001 (ip), vehicle: saline with Tween-80 111 % of control

N#CCCOc1ccc(Cl)cc1
inactive: endpoint: mean survival time, dose: 50.0 mg/kg/injection, schedule: Q01DX009 (ip), vehicle: saline with Tween-80 107 % of control | [14] 97 % of control | [15] 96 % of control
